{"source": "PubChem BioAssay AID1996", "data": [{"conditions": "buffer; pH 7.4; 200.0 µM", "units": {"solubility kinetic": "µg/mL"}, "values": [{"smiles": "CC(C)[C@H](NC(=O)c1cccc(CN(Cc2ccccc2)C(=O)/C=C/c2ccccc2)c1)C(=O)O", "solubility kinetic": 69}, {"smiles": "O=C(NCCCNC(=O)c1ccc(Cl)cc1Cl)c1ccccn1", "solubility kinetic": 51.8}, {"smiles": "CC(C)(C)C(=O)NC1CC2CCCC(C1)N2C(=O)Nc1ccccc1F", "note": "(stereo not given)", "solubility kinetic": 6.1}, {"smiles": "CCN(CC(=O)NCc1ccc(Cl)cc1)C(=O)c1cc(S(=O)(=O)N2CCOCC2)ccc1C", "solubility kinetic": "> 74.1"}, {"smiles": "CCCn1c(C(=O)c2ccccc2)nc2ccccc21", "solubility kinetic": 9.7}, {"smiles": "COc1ccc2c(c1)c(C(=O)O)c(C)n2CCc1ccc(OC)c(OC)c1", "solubility kinetic": "> 55.4"}, {"smiles": "C/C(=N/OC(=O)CC(C)C)c1cc(-c2ccc(Cl)cc2)no1", "solubility kinetic": "< 0.3"}, {"smiles": "CCc1cccc2c(C(=O)C(NCCOC)c3ccccc3)c[nH]c12", "note": "(stereo not given)", "solubility kinetic": "> 50.5"}, {"smiles": "O=S(=O)(NCCNc1nccc(C(F)(F)F)n1)c1ccccc1", "solubility kinetic": 50.2}, {"smiles": "O=C(O)Cc1c[nH]c2ccc(O)cc12", "solubility kinetic": "> 28.7"}, {"smiles": "OC(c1nc2ccc(F)cc2[nH]1)C(O)c1nc2ccc(F)cc2[nH]1", "note": "(stereo not given)", "solubility kinetic": "> 49.5"}, {"smiles": "CCNC(=O)Cc1ccc(S(=O)(=O)N2CCOCC2)s1", "solubility kinetic": "> 47.8"}, {"smiles": "COC(=O)c1cc(S(=O)(=O)N2CCCCC2C)c[nH]1", "note": "(stereo not given)", "solubility kinetic": "> 43"}, {"smiles": "Cc1ccc(C(=O)N/C(=C/c2ccco2)C(=O)N2CCC(C)CC2)cc1", "solubility kinetic": "> 52.9"}, {"smiles": "O=Cc1ccccc1OCCCOc1cccc2cccnc12", "solubility kinetic": 9.7}, {"smiles": "COc1ccc(N2CCN(C(=O)/C=C/c3ccco3)CC2)cc1", "solubility kinetic": 10.5}, {"smiles": "O=C(O)CNC(=S)N(Cc1ccccc1Cl)C1CCCC1", "solubility kinetic": "> 49"}, {"smiles": "CCOC(=O)c1c(C)nc(C(Cl)(Cl)Cl)nc1N", "solubility kinetic": 21.7}, {"smiles": "CC(=O)c1cc(N2CCOCC2)ccc1[N+](=O)[O-]", "solubility kinetic": "> 37.5"}, {"smiles": "Cc1ccc(C(C)NC(=O)c2cccnc2)cc1", "note": "(stereo not given)", "solubility kinetic": 33.5}, {"smiles": "CC1CCC2(CC1)NC(=O)N(CC(=O)N1c3ccccc3CC1C)C2=O", "note": "(stereo not given)", "solubility kinetic": 5.2}, {"smiles": "O=C(NC(=S)Nc1ccccc1C(=O)O)c1cncc(Br)c1", "solubility kinetic": "> 57"}, {"smiles": "CCOC(=O)c1sc(NC(=O)c2ccc(OC(C)=O)cc2)nc1C", "solubility kinetic": 0.7}, {"smiles": "CC1CC(C)CN(C(=O)COC(=O)COc2ccc(C#N)cc2)C1", "note": "(stereo not given)", "solubility kinetic": 43.5}, {"smiles": "CCOc1ccccc1NC(=O)Nc1ccncc1", "solubility kinetic": 36.3}, {"smiles": "Nc1ccccc1OCCOc1ccccc1N", "solubility kinetic": "> 36.6"}, {"smiles": "CCCOP(=O)(c1ccc(N(C)C)cc1)C(O)c1cc(OC)ccc1OC", "note": "(stereo not given)", "solubility kinetic": "> 59"}, {"smiles": "Br.CCn1c2c(c(=N)c3ccccc31)CCC2", "solubility kinetic": "> 44"}, {"smiles": "O=C1Nc2ccccc2S/C1=C/c1cccs1", "solubility kinetic": "< 0.6"}, {"smiles": "O=C(COC(=O)c1ccc(Br)o1)NC12CC3CC(CC(C3)C1)C2", "solubility kinetic": 34.3}, {"smiles": "Fc1cccc(Cl)c1/C=C/c1cnc2ccccc2n1", "solubility kinetic": "< 0.3"}, {"smiles": "Cc1cc(OCCCn2ccnc2)ccc1[N+](=O)[O-].O=C(O)C(=O)O", "solubility kinetic": 36.8}, {"smiles": "Cc1c(NC(=O)c2ccc(-c3ccccc3)cc2)cccc1C(=O)O", "solubility kinetic": 42.3}, {"smiles": "O=C(COC(=O)/C=C/c1cccc([N+](=O)[O-])c1)Nc1cccnc1Cl", "solubility kinetic": 2.1}, {"smiles": "COc1cc(C(=O)N2CCN(c3ccccn3)CC2)cc(OC)c1OC", "solubility kinetic": "> 53.6"}, {"smiles": "CNCCc1ccc(O)c(O)c1.Cl", "solubility kinetic": 17.2}, {"smiles": "O=C(COC(=O)c1cc(=O)[nH]c2ccccc12)Nc1ccc(F)cc1F", "solubility kinetic": 13.7}, {"smiles": "COc1ccc(C(C)(C)C)cc1NC(=O)CCNC(=O)c1ccco1", "solubility kinetic": "> 51.7"}, {"smiles": "CC(C)CC1C(C#N)=C(N)OC2=C1C(=O)CC(c1ccccc1)C2", "note": "(stereo not given)", "solubility kinetic": 37.6}, {"smiles": "Cn1cccc1C(=O)OCC(=O)Nc1ccc2c(c1)OCCO2", "solubility kinetic": 4.8}, {"smiles": "C=CCn1cc(/C=C2\\SC(N3CCOCC3)=NC2=O)c2ccccc21", "solubility kinetic": 9.5}, {"smiles": "Clc1ccc(-c2cnc3n2CCCCC3)cc1", "solubility kinetic": "> 37"}, {"smiles": "Cc1ccccc1N1C(=O)c2cccc3cccc(c23)C1=O", "solubility kinetic": 2.5}, {"smiles": "C=CCSc1ncccc1C(=O)NCCc1ccc(Cl)cc1", "solubility kinetic": 3.6}, {"smiles": "CCOc1ccc(CNc2ccc3c(c2)ncn3C(C)(C)C)cc1", "solubility kinetic": 46.3}, {"smiles": "CC(=O)c1cc(CCC(=O)NC2CCCCCC2)oc1C", "solubility kinetic": "> 43.7"}, {"smiles": "COc1cc(S(=O)(=O)N(C)C2CCCCC2)c(C)cc1C", "solubility kinetic": 1.5}, {"smiles": "O=C(c1ccc2ncsc2c1)N1CCCC(C(F)(F)F)C1", "note": "(stereo not given)", "solubility kinetic": "> 47.1"}, {"smiles": "Cc1onc(-c2ccccc2)c1C(=O)N(Cc1ccccn1)Cc1ccccn1", "solubility kinetic": "> 57.7"}, {"smiles": "Oc1cc2c(cc1CN1CCN(c3ccc(F)cc3)CC1)OCO2", "solubility kinetic": 5.7}, {"smiles": "CC1CCCC(NC(=O)CN2C(=O)NC(C)(c3cc(F)ccc3F)C2=O)C1C", "note": "(stereo not given)", "solubility kinetic": "> 59"}, {"smiles": "COc1ccccc1NC(=O)c1c[nH]c2ccccc12", "solubility kinetic": "> 39.9"}, {"smiles": "N#Cc1ccc(C(=O)Nc2cc(S(=O)(=O)N3CCOCC3)ccc2N2CCCC2)cc1", "solubility kinetic": "> 66.1"}, {"smiles": "COc1ccc(OCCCCn2c(CO)nc3ccccc32)cc1", "solubility kinetic": 45.4}, {"smiles": "O=C(Nc1nc2ccccc2[nH]1)c1cc(F)cc(F)c1", "solubility kinetic": 0.7}, {"smiles": "CC(=O)c1ccc2noc(-c3cccc(F)c3)c2c1", "solubility kinetic": 6.5}, {"smiles": "Cc1onc(-c2ccccc2)c1CNS(=O)(=O)c1cccc(Cl)c1", "solubility kinetic": 36.5}, {"smiles": "COC(=O)/C=C1/SC(=Nc2ccc(Cl)c(Cl)c2)NC1=O", "solubility kinetic": 1}, {"smiles": "O=C(NNC(=S)NC(=O)c1cccs1)c1cccnc1", "solubility kinetic": "> 46"}, {"smiles": "O=C(CNC(=O)C1CCCCC1)OCC(=O)c1cccc(Cl)c1", "solubility kinetic": 46.8}]}]}
